Test results taken from PubChem BioAssay AID1259407 (Chemical Carcinogenesis Research Information System (CCRIS), 2018).
Active and inactive are the calls of the source. The rule behind the calls is not given here.

System: CCRIS mutagenicity, Ames/micronucleus/aberration tests
Assay: CCRIS mutagenicity studies
[1] = End Point: In vitro chromosomal aberrations, Test System: Chinese hamster lung (CHL/IU) cells, Metabolic Activation: Rat, Liver, S9, Phenobarbital and 5,6-benzoflavone
[2] = Test System: AMES SALMONELLA TYPHIMURIUM, Strain/Indicator: TA98, Metabolic Activation: NONE, Method: PREINCUBATION
[3] = Test System: AMES SALMONELLA TYPHIMURIUM, Strain/Indicator: TA98, Metabolic Activation: NONE, Method: STANDARD PLATE
[4] = Test System: AMES SALMONELLA TYPHIMURIUM, Strain/Indicator: TA100, Metabolic Activation: NONE, Method: PREINCUBATION
[5] = Test System: AMES SALMONELLA TYPHIMURIUM, Strain/Indicator: TA100, Metabolic Activation: NONE, Method: STANDARD PLATE
[6] = Test System: AMES SALMONELLA TYPHIMURIUM, Strain/Indicator: TA1535, Metabolic Activation: NONE, Method: STANDARD PLATE
[7] = Test System: AMES SALMONELLA TYPHIMURIUM, Strain/Indicator: TA1535, Metabolic Activation: NONE, Method: PREINCUBATION

Question: Which mutagenic call (End Point: IN VITRO CHROMOSOMAL ABERRATIONS, Test System: HUMAN PERIPHERAL LYMPHOCYTES, Metabolic Activation: NONE) does the source give for `O=[N+]([O-])c1ccc(Cl)c(Cl)c1` here?
Answer: inactive; negative

Question: And the mutagenic call [1]?
Answer: active; positive (structural changes). precipitation observed in culture medium at 0.16

Question: And the mutagenic call [2]?
Answer: inactive; negative

Question: What about the mutagenic call [3] of the same compound?
Answer: inactive; negative

Question: What about the mutagenic call (Test System: AMES SALMONELLA TYPHIMURIUM, Strain/Indicator: TA98, Metabolic Activation: RAT LIVER S-9, AROCLOR 1254 (10%), Method: STANDARD PLATE) of the same compound?
Answer: inactive; negative

Question: What about the mutagenic call (Test System: AMES SALMONELLA TYPHIMURIUM, Strain/Indicator: TA98, Metabolic Activation: RAT, LIVER, S-9, KANECHLOR 500, Method: PREINCUBATION) of the same compound?
Answer: inactive; negative

Question: And the mutagenic call [4]?
Answer: active; positive

Question: What about the mutagenic call [5] of the same compound?
Answer: inactive; negative

Question: And the mutagenic call (Test System: AMES SALMONELLA TYPHIMURIUM, Strain/Indicator: TA100, Metabolic Activation: RAT, LIVER, S-9, KANECHLOR 500, Method: PREINCUBATION)?
Answer: active; positive

Question: What about the mutagenic call (Test System: Ames Salmonella typhimurium, Strain/Indicator: TA98, Metabolic Activation: None, Method: Preincubaton) of the same compound?
Answer: inactive; negative

Question: And the mutagenic call (Test System: Ames Salmonella typhimurium, Strain/Indicator: TA98, Metabolic Activation: Rat, Liver, S9, Sodium phenobarbital and 5,6-benzoflavone (10%), Method: Preincubaton)?
Answer: inactive; negative

Question: And the mutagenic call (Test System: Ames Salmonella typhimurium, Strain/Indicator: TA100, Metabolic Activation: None, Method: Preincubaton)?
Answer: active; positive

Question: What about the mutagenic call (Test System: Ames Salmonella typhimurium, Strain/Indicator: TA100, Metabolic Activation: Rat, Liver, S9, Sodium phenobarbital and 5,6-benzoflavone (10%), Method: Preincubaton) of the same compound?
Answer: active; positive

Question: And the mutagenic call (Test System: Ames Salmonella typhimurium, Strain/Indicator: TA1535, Metabolic Activation: None, Method: Preincubaton)?
Answer: inactive; negative

Question: What about the mutagenic call (Test System: Ames Salmonella typhimurium, Strain/Indicator: TA1535, Metabolic Activation: Rat, Liver, S9, Sodium phenobarbital and 5,6-benzoflavone (10%), Method: Preincubaton) of the same compound?
Answer: inactive; negative

Question: What about the mutagenic call (Test System: Ames Salmonella typhimurium, Strain/Indicator: TA1537, Metabolic Activation: None, Method: Preincubaton) of the same compound?
Answer: inactive; negative

Question: And the mutagenic call (Test System: Ames Salmonella typhimurium, Strain/Indicator: TA1537, Metabolic Activation: Rat, Liver, S9, Sodium phenobarbital and 5,6-benzoflavone (10%), Method: Preincubaton)?
Answer: inactive; negative

Question: What about the mutagenic call (Test System: E. coli, Strain/Indicator: WP2uvrA/pKM101, Metabolic Activation: None, Method: Preincubaton) of the same compound?
Answer: inactive; negative

Question: And the mutagenic call (Test System: E. coli, Strain/Indicator: WP2uvrA/pKM101, Metabolic Activation: Rat, Liver, S9, Sodium phenobarbital and 5,6-benzoflavone (10%), Method: Preincubaton)?
Answer: inactive; negative

Question: What does the source list for `Oc1ccc(O)c2ccccc12`?
Answer: mutagenic call (Test System: AMES SALMONELLA TYPHIMURIUM, Strain/Indicator: TA104, Metabolic Activation: NONE, Method: PREINCUBATION): active; positive; mutagenic call (Test System: AMES SALMONELLA TYPHIMURIUM, Strain/Indicator: TA2637, Metabolic Activation: RAT, LIVER, S-9, PHENOBARBITAL AND 5,6-BENZOFLAVONE, Method: PREINCUBATION): active; positive

Question: How did the mutagenic call [5] turn out when `O=C(O)C1OC1C(=O)O` (stereo not given) was run?
Answer: inactive; negative

Question: What about the mutagenic call (Test System: AMES SALMONELLA TYPHIMURIUM, Strain/Indicator: TA100, Metabolic Activation: RAT, LIVER, S-9, AROCLOR 1254, Method: STANDARD PLATE) of the same compound?
Answer: inactive; negative

Question: What about the mutagenic call [6] of the same compound?
Answer: inactive; negative

Question: What about the mutagenic call (Test System: AMES SALMONELLA TYPHIMURIUM, Strain/Indicator: TA1535, Metabolic Activation: RAT, LIVER, S-9, AROCLOR 1254, Method: STANDARD PLATE) of the same compound?
Answer: inactive; negative

Question: And the mutagenic call (Test System: UDS RAT HEPATOCYTES, Strain/Indicator: THY INCORP, Metabolic Activation: NONE)?
Answer: inactive; negative

Question: For `CC(=O)CN(COC(C)=O)N=O`, which mutagenic call [7] is on record?
Answer: active; positive

Question: For `CN(N=O)C(=O)c1c(N(C)C(=O)OC(C)(C)C)ncn1C`, which mutagenic call [3] is on record?
Answer: inactive; negative

Question: And the mutagenic call (Test System: AMES SALMONELLA TYPHIMURIUM, Strain/Indicator: TA98, Metabolic Activation: S-9, Method: STANDARD PLATE)?
Answer: inactive; negative

Question: And the mutagenic call [5]?
Answer: active; positive

Question: What about the mutagenic call (Test System: AMES SALMONELLA TYPHIMURIUM, Strain/Indicator: TA100, Metabolic Activation: S-9, Method: STANDARD PLATE) of the same compound?
Answer: active; positive

Question: And the mutagenic call (Test System: AMES SALMONELLA TYPHIMURIUM, Strain/Indicator: TA102, Metabolic Activation: NONE, Method: STANDARD PLATE)?
Answer: inactive; negative

Question: What about the mutagenic call (Test System: AMES SALMONELLA TYPHIMURIUM, Strain/Indicator: TA102, Metabolic Activation: S-9, Method: STANDARD PLATE) of the same compound?
Answer: active; positive

Question: And the mutagenic call [6]?
Answer: active; positive

Question: What about the mutagenic call (Test System: AMES SALMONELLA TYPHIMURIUM, Strain/Indicator: TA1535, Metabolic Activation: S-9, Method: STANDARD PLATE) of the same compound?
Answer: active; positive

Question: And the mutagenic call (Test System: AMES SALMONELLA TYPHIMURIUM, Strain/Indicator: TA1537, Metabolic Activation: NONE, Method: STANDARD PLATE)?
Answer: inactive; negative

Question: And the mutagenic call (Test System: AMES SALMONELLA TYPHIMURIUM, Strain/Indicator: TA1537, Metabolic Activation: S-9, Method: STANDARD PLATE)?
Answer: inactive; negative

Question: `CCCCCCCCCCCCCCCCCCN` was tested. Which mutagenic call (Test System: AMES SALMONELLA TYPHIMURIUM, Strain/Indicator: TA97, Metabolic Activation: HAMSTER, LIVER, S-9, AROCLOR 1254 (10 OR 30%), Method: PREINCUBATION) did it give?
Answer: inactive; negative

Question: What about the mutagenic call (Test System: AMES SALMONELLA TYPHIMURIUM, Strain/Indicator: TA97, Metabolic Activation: NONE, Method: PREINCUBATION) of the same compound?
Answer: inactive; negative

Question: And the mutagenic call (Test System: AMES SALMONELLA TYPHIMURIUM, Strain/Indicator: TA97, Metabolic Activation: RAT, LIVER, S-9, AROCLOR 1254 (10 OR 30%), Method: PREINCUBATION)?
Answer: inactive; negative

Question: And the mutagenic call (Test System: AMES SALMONELLA TYPHIMURIUM, Strain/Indicator: TA98, Metabolic Activation: HAMSTER, LIVER, S-9, AROCLOR 1254 (10 OR 30%), Method: PREINCUBATION)?
Answer: inactive; negative

Question: And the mutagenic call [2]?
Answer: inactive; negative

Question: What about the mutagenic call (Test System: AMES SALMONELLA TYPHIMURIUM, Strain/Indicator: TA98, Metabolic Activation: RAT LIVER S-9, PHENOBARBITAL AND BETA-NAPHTHOFLAVONE, Method: PREINCUBATION) of the same compound?
Answer: inactive; negative

Question: What about the mutagenic call (Test System: AMES SALMONELLA TYPHIMURIUM, Strain/Indicator: TA98, Metabolic Activation: RAT, LIVER, S-9, AROCLOR 1254 (10 OR 30%), Method: PREINCUBATION) of the same compound?
Answer: inactive; negative

Question: What about the mutagenic call (Test System: AMES SALMONELLA TYPHIMURIUM, Strain/Indicator: TA100, Metabolic Activation: HAMSTER, LIVER, S-9, AROCLOR 1254 (10 OR 30%), Method: PREINCUBATION) of the same compound?
Answer: inactive; negative

Question: And the mutagenic call [4]?
Answer: inactive; negative

Question: And the mutagenic call (Test System: AMES SALMONELLA TYPHIMURIUM, Strain/Indicator: TA100, Metabolic Activation: RAT LIVER S-9, PHENOBARBITAL AND BETA-NAPHTHOFLAVONE, Method: PREINCUBATION)?
Answer: inactive; negative

Question: What about the mutagenic call (Test System: AMES SALMONELLA TYPHIMURIUM, Strain/Indicator: TA100, Metabolic Activation: RAT, LIVER, S-9, AROCLOR 1254 (10 OR 30%), Method: PREINCUBATION) of the same compound?
Answer: inactive; negative

Question: And the mutagenic call (Test System: AMES SALMONELLA TYPHIMURIUM, Strain/Indicator: TA1535, Metabolic Activation: HAMSTER, LIVER, S-9, AROCLOR 1254 (10 OR 30%), Method: PREINCUBATION)?
Answer: inactive; negative

Question: And the mutagenic call [7]?
Answer: inactive; negative

Question: What about the mutagenic call (Test System: AMES SALMONELLA TYPHIMURIUM, Strain/Indicator: TA1535, Metabolic Activation: RAT LIVER S-9, PHENOBARBITAL AND BETA-NAPHTHOFLAVONE, Method: PREINCUBATION) of the same compound?
Answer: inactive; negative

Question: What about the mutagenic call (Test System: AMES SALMONELLA TYPHIMURIUM, Strain/Indicator: TA1535, Metabolic Activation: RAT, LIVER, S-9, AROCLOR 1254 (10 OR 30%), Method: PREINCUBATION) of the same compound?
Answer: inactive; negative

Question: And the mutagenic call (Test System: AMES SALMONELLA TYPHIMURIUM, Strain/Indicator: TA1537, Metabolic Activation: NONE, Method: PREINCUBATION)?
Answer: inactive; negative

Question: And the mutagenic call (Test System: AMES SALMONELLA TYPHIMURIUM, Strain/Indicator: TA1537, Metabolic Activation: RAT LIVER S-9, PHENOBARBITAL AND BETA-NAPHTHOFLAVONE, Method: PREINCUBATION)?
Answer: inactive; negative

Question: And the mutagenic call (Test System: E.COLI, Strain/Indicator: WP2UVRA/PKM101, Metabolic Activation: NONE, Method: PREINCUBATION)?
Answer: inactive; negative

Question: What about the mutagenic call (Test System: E.COLI, Strain/Indicator: WP2UVRA/PKM101, Metabolic Activation: RAT LIVER S-9, PHENOBARBITAL AND BETA-NAPHTHOFLAVONE, Method: PREINCUBATION) of the same compound?
Answer: inactive; negative

Question: Which mutagenic call [1] does the source give for `C=CCO` here?
Answer: active; positive (structural changes and ploidy). toxicity at 0.008 mg/ml.

Question: And the mutagenic call (Test System: CHINESE HAMSTER V-79, Strain/Indicator: V-79/6-THIOGUANINE, Metabolic Activation: NONE)?
Answer: active; positive

Question: And the mutagenic call (Test System: MOUSE LYMPHOMA, Strain/Indicator: L5178Y (TK+/TK-), Metabolic Activation: NONE, Method: SUSPENSION/PLATE)?
Answer: active; positive. reevaluation of results: positive

Question: And the mutagenic call (Test System: Mouse lymphoma, Strain/Indicator: L5178Y (tk+/tk-), Metabolic Activation: Rat, Liver, S-9, Aroclor 1254, Method: Suspension/plate)?
Answer: inactive; negative
